Measurements as given in ChEMBL document CHEMBL1151087, “N-sulfonyl derivatives of 6,7-dichloro 3,4-dihydro-3-oxo-quinoxalinecarboxylate as glycine-site NMDA and AMPA antagonists” (Bioorg Med Chem Lett, 1993).

How the values were obtained:
Rattus norvegicus = species: Rattus norvegicus; assay: Tested for the ability to suppress the spontaneous epileptiform discharge rate in a cortical wedge model; assay type: functional, organism-based
[1] = target: Glutamate [NMDA] receptor; assay: Tested for the affinity to the glycine site -NMDA receptor using [3H]Gly as radioligand.; assay type: protein-complex assay
[2] = Partition coefficient was measured using a shake flask method with octanol/buffer at physiological pH; assay type: physicochemical
[3] = target: Glutamate receptor ionotropic AMPA (Homo sapiens, UniProt P42261+P42262+P42263+P48058)
Description: Tested for the affinity to the Ionotropic glutamate receptor AMPA using [3H]-AMPA as radioligand

Row | IC50 (Rattus norvegicus) [µM] | IC50 [1] [µM] | logD [2] | IC50 [3] [µM] | SMILES
1 | 11 | 0.12 | 0.15 | 4.3 | O=C(NS(=O)(=O)c1ccccc1)c1nc2cc(Cl)c(Cl)cc2[nH]c1=O
2 | 11 | 0.36 | -1.1 | 14 | CS(=O)(=O)NC(=O)c1nc2cc(Cl)c(Cl)cc2nc1O
3 | – | 0.46 | -1 | 6.7 | O=C(O)c1nc2cc(Cl)c(Cl)cc2nc1O [6,7-DICHLORO-3-HYDROXY-2-QUINOXALINECARBOXYLIC ACID]
4 | – | 0.84 | 0.09 | 0.2 | O=c1[nH]c2cc([N+](=O)[O-])c([N+](=O)[O-])cc2[nH]c1=O [DNQX]
5 | – | > 100 | – | – | NS(=O)(=O)c1cccc2c1c([N+](=O)[O-])cc1nc(O)c(O)nc12 [NBQX]

Row | SMILES | IC50 (Rattus norvegicus) [µM] | IC50 [1] [µM] | logD [2] | IC50 [3] [µM]
6 | O=C(O)c1cc(O)c2c(Cl)cc(Cl)cc2n1 | 5 | 0.068 | -0.56 | > 100
